Columns and labels:
Cannabinoid receptor 1 = Cannabinoid receptor 1 (Homo sapiens, UniProt P21554); format: functional
[1] = target: T1, Corticotropin-releasing factor receptor 1 (Homo sapiens, UniProt P34998)
T1 sequence (P34998 whole entry): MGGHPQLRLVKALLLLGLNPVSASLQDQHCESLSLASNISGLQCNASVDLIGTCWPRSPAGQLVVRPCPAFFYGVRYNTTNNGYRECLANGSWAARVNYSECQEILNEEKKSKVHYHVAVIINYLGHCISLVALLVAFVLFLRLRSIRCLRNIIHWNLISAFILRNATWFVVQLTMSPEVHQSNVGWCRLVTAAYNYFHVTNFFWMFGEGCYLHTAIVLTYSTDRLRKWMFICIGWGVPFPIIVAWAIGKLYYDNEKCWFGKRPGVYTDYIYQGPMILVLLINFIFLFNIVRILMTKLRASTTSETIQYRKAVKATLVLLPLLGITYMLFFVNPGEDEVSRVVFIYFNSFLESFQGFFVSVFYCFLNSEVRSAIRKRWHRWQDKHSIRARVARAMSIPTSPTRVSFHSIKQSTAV

[2] = target: T2, Endothelin receptor type B (Homo sapiens, UniProt P24530)
T2 sequence (P24530 whole entry): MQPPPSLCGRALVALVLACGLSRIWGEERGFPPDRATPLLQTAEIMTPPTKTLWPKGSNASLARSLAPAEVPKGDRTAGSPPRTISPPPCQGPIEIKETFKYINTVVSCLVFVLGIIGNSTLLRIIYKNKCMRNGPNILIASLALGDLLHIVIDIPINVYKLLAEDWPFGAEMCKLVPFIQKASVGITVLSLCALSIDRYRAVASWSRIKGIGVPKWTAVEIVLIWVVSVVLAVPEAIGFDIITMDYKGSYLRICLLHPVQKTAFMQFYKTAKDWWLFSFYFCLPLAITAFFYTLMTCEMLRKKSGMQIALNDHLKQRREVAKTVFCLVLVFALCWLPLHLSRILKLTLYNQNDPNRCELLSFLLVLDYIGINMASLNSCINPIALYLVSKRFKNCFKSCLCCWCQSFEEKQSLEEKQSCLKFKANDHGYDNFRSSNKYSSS

[3] = target: T3, Gastric inhibitory polypeptide receptor (Homo sapiens, UniProt P48546)
T3 sequence (P48546 whole entry): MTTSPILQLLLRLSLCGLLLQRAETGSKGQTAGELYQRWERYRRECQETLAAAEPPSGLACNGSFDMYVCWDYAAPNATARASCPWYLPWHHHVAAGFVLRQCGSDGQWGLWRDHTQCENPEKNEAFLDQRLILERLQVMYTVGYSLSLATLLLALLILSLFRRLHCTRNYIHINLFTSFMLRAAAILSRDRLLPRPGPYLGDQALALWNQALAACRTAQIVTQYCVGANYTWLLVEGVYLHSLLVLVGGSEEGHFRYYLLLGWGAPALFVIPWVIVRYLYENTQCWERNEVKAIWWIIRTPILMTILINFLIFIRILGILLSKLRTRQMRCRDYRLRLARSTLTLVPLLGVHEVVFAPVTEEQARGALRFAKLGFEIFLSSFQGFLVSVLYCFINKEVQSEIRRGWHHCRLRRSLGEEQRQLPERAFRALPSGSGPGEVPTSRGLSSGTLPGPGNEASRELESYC

Histamine H1 receptor = Histamine H1 receptor (Homo sapiens, UniProt P35367); format: functional, cell-based
Substance-P receptor = Substance-P receptor (Homo sapiens, UniProt P25103)
[4] = target: Beta-1 adrenergic receptor (Homo sapiens, UniProt P08588); format: functional, cell-based
Androgen receptor = target: T4, Androgen receptor (Rattus norvegicus, UniProt P15207)
T4 sequence (P15207 whole entry): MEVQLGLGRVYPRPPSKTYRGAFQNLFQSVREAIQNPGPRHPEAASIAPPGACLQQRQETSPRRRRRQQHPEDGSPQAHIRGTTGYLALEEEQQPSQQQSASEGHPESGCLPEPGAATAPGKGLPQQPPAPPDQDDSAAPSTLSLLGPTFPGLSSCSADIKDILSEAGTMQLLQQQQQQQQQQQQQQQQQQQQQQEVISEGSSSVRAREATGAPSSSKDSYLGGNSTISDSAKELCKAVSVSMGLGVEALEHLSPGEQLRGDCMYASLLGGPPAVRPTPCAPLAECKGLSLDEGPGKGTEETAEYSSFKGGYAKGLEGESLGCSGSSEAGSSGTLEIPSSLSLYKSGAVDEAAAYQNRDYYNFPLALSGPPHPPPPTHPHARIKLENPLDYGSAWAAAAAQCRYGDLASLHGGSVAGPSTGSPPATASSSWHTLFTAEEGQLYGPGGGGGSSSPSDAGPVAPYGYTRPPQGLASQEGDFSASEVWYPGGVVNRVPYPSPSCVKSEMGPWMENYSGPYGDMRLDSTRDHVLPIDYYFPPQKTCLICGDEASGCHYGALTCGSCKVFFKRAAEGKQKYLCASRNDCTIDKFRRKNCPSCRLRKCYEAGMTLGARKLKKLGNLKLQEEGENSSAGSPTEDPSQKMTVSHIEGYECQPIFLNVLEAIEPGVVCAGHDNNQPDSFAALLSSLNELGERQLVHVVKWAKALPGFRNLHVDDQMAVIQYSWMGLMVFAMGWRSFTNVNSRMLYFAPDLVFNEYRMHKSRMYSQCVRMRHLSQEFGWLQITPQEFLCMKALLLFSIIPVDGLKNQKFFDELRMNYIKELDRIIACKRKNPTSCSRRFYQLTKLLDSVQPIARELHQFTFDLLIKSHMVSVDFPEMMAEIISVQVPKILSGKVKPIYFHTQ

[5] = target: T5, Peroxisome proliferator-activated receptor gamma (Homo sapiens, UniProt P37231); format: functional
T5 sequence (P37231 whole entry): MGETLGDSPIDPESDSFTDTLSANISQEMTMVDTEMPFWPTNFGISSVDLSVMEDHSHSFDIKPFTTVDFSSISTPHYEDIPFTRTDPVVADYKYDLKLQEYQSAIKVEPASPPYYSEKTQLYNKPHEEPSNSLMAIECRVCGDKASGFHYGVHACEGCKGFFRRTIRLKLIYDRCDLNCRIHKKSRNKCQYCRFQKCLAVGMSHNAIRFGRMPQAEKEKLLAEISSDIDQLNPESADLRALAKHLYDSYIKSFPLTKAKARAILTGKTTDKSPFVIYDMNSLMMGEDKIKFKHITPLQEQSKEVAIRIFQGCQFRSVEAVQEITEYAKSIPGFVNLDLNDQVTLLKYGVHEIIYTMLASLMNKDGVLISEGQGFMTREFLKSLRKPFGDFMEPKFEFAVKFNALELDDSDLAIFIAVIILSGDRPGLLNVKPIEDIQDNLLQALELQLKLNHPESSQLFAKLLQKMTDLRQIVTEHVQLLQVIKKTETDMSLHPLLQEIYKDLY
Also: assay procedure not described here.

Beta-1 adrenergic receptor, sequence (P08588 whole entry): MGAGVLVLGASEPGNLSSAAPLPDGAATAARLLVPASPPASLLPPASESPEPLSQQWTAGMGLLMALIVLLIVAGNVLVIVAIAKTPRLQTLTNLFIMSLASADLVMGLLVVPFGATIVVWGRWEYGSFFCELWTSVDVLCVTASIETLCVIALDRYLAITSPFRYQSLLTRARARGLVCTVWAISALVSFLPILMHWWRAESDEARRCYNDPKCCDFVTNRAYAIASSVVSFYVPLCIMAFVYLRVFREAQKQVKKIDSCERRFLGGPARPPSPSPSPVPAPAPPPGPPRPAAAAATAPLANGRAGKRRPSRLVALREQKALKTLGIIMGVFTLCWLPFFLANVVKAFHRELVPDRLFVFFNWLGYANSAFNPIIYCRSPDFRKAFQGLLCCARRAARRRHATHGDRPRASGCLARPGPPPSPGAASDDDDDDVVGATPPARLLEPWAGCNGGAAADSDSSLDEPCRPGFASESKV
Substance-P receptor, sequence (P25103 whole entry): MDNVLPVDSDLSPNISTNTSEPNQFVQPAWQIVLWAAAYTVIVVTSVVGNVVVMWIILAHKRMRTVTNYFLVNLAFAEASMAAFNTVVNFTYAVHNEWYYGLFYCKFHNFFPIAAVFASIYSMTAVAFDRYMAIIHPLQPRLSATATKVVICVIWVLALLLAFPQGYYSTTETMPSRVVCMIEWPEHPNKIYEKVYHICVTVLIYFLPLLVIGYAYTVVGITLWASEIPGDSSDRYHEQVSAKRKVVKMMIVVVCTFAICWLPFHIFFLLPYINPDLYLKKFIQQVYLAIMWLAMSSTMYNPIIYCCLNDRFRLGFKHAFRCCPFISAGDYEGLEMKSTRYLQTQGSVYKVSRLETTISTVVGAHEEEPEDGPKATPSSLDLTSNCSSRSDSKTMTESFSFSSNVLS
Histamine H1 receptor, sequence (P35367 whole entry): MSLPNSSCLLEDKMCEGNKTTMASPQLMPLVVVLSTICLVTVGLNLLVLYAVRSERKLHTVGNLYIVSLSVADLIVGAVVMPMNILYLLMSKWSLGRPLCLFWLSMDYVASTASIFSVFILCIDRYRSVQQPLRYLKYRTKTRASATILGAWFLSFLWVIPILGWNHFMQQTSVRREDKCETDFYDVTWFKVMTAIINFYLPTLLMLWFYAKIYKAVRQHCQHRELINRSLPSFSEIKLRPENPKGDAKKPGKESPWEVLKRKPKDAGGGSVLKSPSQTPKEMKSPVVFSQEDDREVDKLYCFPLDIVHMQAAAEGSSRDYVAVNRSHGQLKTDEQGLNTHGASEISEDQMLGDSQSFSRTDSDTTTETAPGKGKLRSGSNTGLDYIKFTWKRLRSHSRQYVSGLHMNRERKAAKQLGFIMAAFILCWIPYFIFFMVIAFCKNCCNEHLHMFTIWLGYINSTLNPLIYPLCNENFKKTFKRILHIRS
Cannabinoid receptor 1, sequence (P21554 whole entry): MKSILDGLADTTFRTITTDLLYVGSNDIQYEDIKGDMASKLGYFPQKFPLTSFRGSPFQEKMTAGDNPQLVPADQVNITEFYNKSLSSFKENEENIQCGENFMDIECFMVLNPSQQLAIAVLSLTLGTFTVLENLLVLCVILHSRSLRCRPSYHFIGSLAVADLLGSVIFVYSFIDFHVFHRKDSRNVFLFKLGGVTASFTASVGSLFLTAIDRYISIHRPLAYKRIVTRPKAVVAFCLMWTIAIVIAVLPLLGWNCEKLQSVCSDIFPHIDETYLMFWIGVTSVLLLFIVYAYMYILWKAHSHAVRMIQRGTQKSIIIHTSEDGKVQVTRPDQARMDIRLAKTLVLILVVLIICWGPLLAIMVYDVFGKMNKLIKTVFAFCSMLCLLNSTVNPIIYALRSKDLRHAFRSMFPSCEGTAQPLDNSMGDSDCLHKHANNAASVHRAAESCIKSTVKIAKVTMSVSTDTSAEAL

## CCCCc1ncc(/C=C(\Cc2cccs2)C(=O)O)n1Cc1ccc(C(=O)O)cc1 [EPROSARTAN]
Cannabinoid receptor 1
  AC50: > 10 µM
[1]
  AC50: > 30 µM
[2]
  AC50: > 30 µM
[3]
  AC50: > 30 µM
Histamine H1 receptor
  AC50: > 30 µM
Substance-P receptor
  AC50: > 10 µM

## COc1cc2c(N)nc(N3CCN(C(=O)OCC(C)(C)O)CC3)nc2c(OC)c1OC [TRIMAZOSIN]
[4]
  AC50: > 30 µM

## CC(C)C(=O)c1c(C(C)C)nn2ccccc12 [IBUDILAST]
[4]
  AC50: > 30 µM

## COC(=O)[C@H]1[C@H]2C[C@@H]3c4[nH]c5cc(OC)ccc5c4CCN3C[C@H]2C[C@@H](OC(=O)/C=C/c2cc(OC)c(OC)c(OC)c2)[C@@H]1OC [RESCINNAMINE]
Androgen receptor
  AC50: > 10 µM

## COc1ccc2c3c1O[C@H]1[C@@H](O)C=C[C@H]4[C@@H](C2)N(C)CC[C@@]341 [CODEINE]
Cannabinoid receptor 1
  AC50: > 10 µM
[1]
  AC50: > 30 µM
[2]
  AC50: > 30 µM
[3]
  AC50: > 30 µM
Substance-P receptor
  AC50: > 10 µM

## CC(C)Cn1cnc2c(N)nc3ccccc3c21 [IMIQUIMOD]
Androgen receptor
  AC50: > 10 µM

## CCN(CC)C(=O)N[C@H]1C[C@@H]2c3cccc4[nH]cc(c34)C[C@H]2N(C)C1 [TERGURIDE]
Histamine H1 receptor
  AC50: > 30 µM
[5]
  AC50: > 30 µM

## COc1ccc(CCN(C)CCCC(C#N)(c2cc(OC)c(OC)c(OC)c2)C(C)C)cc1OC (stereo not given) [GALLOPAMIL]
[4]
  AC50: > 30 µM

## C/C(O)=C(\C#N)C(=O)Nc1ccc(C(F)(F)F)cc1 [TERIFLUNOMIDE]
[5]
  AC50: 25 µM

## CCc1c(Cl)c(O)c(Cl)c(O)c1C(=O)O[C@H]1[C@H](O)[C@H](OC)[C@H](OC/C2=C\C=C\C[C@H](O)/C(C)=C/[C@H](CC)[C@@H](O[C@@H]3OC(C)(C)[C@@H](OC(=O)C(C)C)[C@H](O)[C@@H]3O)/C(C)=C/C(C)=C/C[C@@H]([C@@H](C)O)OC2=O)O[C@@H]1C [FIDAXOMICIN]
Androgen receptor
  AC50: 25 µM
[1]
  AC50: > 30 µM
[2]
  AC50: > 30 µM
[3]
  AC50: > 30 µM
Substance-P receptor
  AC50: 5.92 µM

## CCN1CCN(C(=O)N[C@@H](C(=O)N[C@@H]2C(=O)N3C(C(=O)O)=C(CSc4nnnn4C)CS[C@H]23)c2ccc(O)cc2)C(=O)C1=O [CEFOPERAZONE]
[5]
  AC50: > 30 µM

## CNS(=O)(=O)Cc1ccc2[nH]cc(CCN(C)C)c2c1
Cannabinoid receptor 1
  AC50: > 10 µM
[1]
  AC50: > 30 µM
[2]
  AC50: > 30 µM
[3]
  AC50: > 30 µM

## CCCN(CCC)C(=O)C(CCC(=O)O)NC(=O)c1ccccc1 (stereo not given) [PROGLUMIDE]
[1]
  AC50: > 30 µM
[2]
  AC50: > 30 µM
[3]
  AC50: > 30 µM
Substance-P receptor
  AC50: > 10 µM

## N#Cc1ccc([C@H]2CCc3cncn32)c(F)c1 [OSILODROSTAT]
Cannabinoid receptor 1
  AC50: > 10 µM
[2]
  AC50: > 10 µM
Substance-P receptor
  AC50: > 10 µM

## CCOC(=O)[N-]c1cn(N2CCOCC2)n[o+]1 [MOLSIDOMINE]
[4]
  AC50: > 30 µM

## NCC(=O)CCC(=O)O [AMINOLEVULINIC ACID]
Histamine H1 receptor
  AC50: > 30 µM

## CCCc1nc(C(C)(C)O)c(C(=O)OCc2oc(=O)oc2C)n1Cc1ccc(-c2ccccc2-c2nnn[nH]2)cc1 [OLMESARTAN MEDOXOMIL]
Cannabinoid receptor 1
  AC50: > 10 µM
[1]
  AC50: > 30 µM
[2]
  AC50: > 50 µM
[3]
  AC50: > 30 µM
Substance-P receptor
  AC50: > 10 µM

## O=C(NCCNCC(O)COc1ccc(O)cc1)N1CCOCC1 (stereo not given) [XAMOTEROL]
Histamine H1 receptor
  AC50: > 30 µM

## CC[C@@H]1C(=O)OC[C@@H]1Cc1cncn1C [PILOCARPINE]
Histamine H1 receptor
  AC50: > 30 µM

## CCC(C(=O)O)c1ccc(N2Cc3ccccc3C2=O)cc1 (stereo not given) [INDOBUFEN]
[4]
  AC50: > 30 µM

## CC(C)(C)c1cc(C(C)(C)C)c(NC(=O)c2c[nH]c3ccccc3c2=O)cc1O [IVACAFTOR]
Androgen receptor
  AC50: > 30 µM

## CO/N=C(\C(=O)N[C@@H]1C(=O)N2C(C(=O)O)=C(CSc3nnnn3C)CS[C@H]12)c1csc(N)n1 [CEFMENOXIME]
[5]
  AC50: > 30 µM

## O=C(O)C[C@H](O)C[C@H](O)/C=C/c1c(C2CC2)nc2ccccc2c1-c1ccc(F)cc1 [PITAVASTATIN]
Androgen receptor
  AC50: > 10 µM

## CN1CCN(CC/C=C2/c3ccccc3Sc3ccc(S(=O)(=O)N(C)C)cc32)CC1 [THIOTHIXENE]
Androgen receptor
  AC50: > 30 µM
Cannabinoid receptor 1
  AC50: > 10 µM
[1]
  AC50: > 30 µM
[2]
  AC50: > 30 µM
[3]
  AC50: > 30 µM
Substance-P receptor
  AC50: 3.84 µM

## COC(=O)C1=C(C)NC(C)=C(C(=O)OC(C)(C)CN(C)CCC(c2ccccc2)c2ccccc2)C1c1cccc([N+](=O)[O-])c1 (stereo not given) [LERCANIDIPINE]
Androgen receptor
  AC50: > 30 µM

## CC(=O)O[C@H]1CC[C@@]2(C)C(=CC[C@@H]3[C@@H]2CC[C@]2(C)C(c4cccnc4)=CC[C@@H]32)C1 [ABIRATERONE ACETATE]
[5]
  AC50: > 30 µM

## CC(C)OC(=O)CCC/C=C\C[C@@H]1[C@@H](CC[C@@H](O)CCc2ccccc2)[C@H](O)C[C@@H]1O [LATANOPROST]
Histamine H1 receptor
  AC50: > 30 µM
[5]
  AC50: > 30 µM

## O=C(O)C1=C(CSc2nnnn2CS(=O)(=O)O)CS[C@@H]2[C@H](NC(=O)[C@H](O)c3ccccc3)C(=O)N12 [CEFONICID]
Androgen receptor
  AC50: > 30 µM

## CN1C(=O)C(O)N=C(c2ccccc2)c2cc(Cl)ccc21 (stereo not given) [TEMAZEPAM]
[1]
  AC50: > 30 µM
[2]
  AC50: > 30 µM
[3]
  AC50: > 30 µM
Substance-P receptor
  AC50: > 10 µM

## C=CCC1(CC(C)C)C(=O)NC(=O)NC1=O [BUTALBITAL]
Androgen receptor
  AC50: > 10 µM

## Cn1c(=O)c2c(ncn2CC2OCCO2)n(C)c1=O [DOXOFYLLINE]
[4]
  AC50: > 30 µM

## CCC1(CC)C(=O)NCC(C)C1=O (stereo not given) [METHYPRYLON]
Histamine H1 receptor
  AC50: > 30 µM
[5]
  AC50: > 30 µM

## CN1CCC(=C2c3ccccc3CCc3sccc32)CC1 [PIZOTYLINE]
Histamine H1 receptor
  AC50: > 30 µM

## NCC[C@H](O)C(=O)N[C@@H]1C[C@H](N)[C@@H](O[C@H]2O[C@H](CN)[C@@H](O)[C@H](O)[C@H]2O)[C@H](O)[C@H]1O[C@H]1O[C@H](CO)[C@@H](O)[C@H](N)[C@H]1O [AMIKACIN]
Androgen receptor
  AC50: > 10 µM

Reference: ChEMBL document CHEMBL5291721, “A preclinical secondary pharmacology resource illuminates target-adverse drug reaction associations of marketed drugs” (Nat Commun, 2023)
